According to US6191271A, “Synthetic divalent sLex containing polylactosamines and methods for use” (Glycim Oy, priority 1998, dated 2001):
Entries after “also recorded” stand apart in the source; their conditions may differ.

Assays:
human Fuc-TIV = experiment: Fucosyltransferase reaction with lysates of CHO-cells transfected with human Fuc-TIV; assay type: biochemical; conditions: for share of Fuc-TIV fucose transfer at the terminal (sialylated or non-reducing end) LN unit: residue 3 / terminal LN unit
Procedure: (§1) Transfected Cells and Cell Lysates--The transfection of CHO-cells stably expressing human Fuc-TIV or Fuc-TVII has been described previously (Lowe, J. B., et al., J. Biol. Chem. 266:17467-17477 (1991); Natsuka, S., et al., J. Biol. Chem. 269:16789-16794 (1994)). For the enzyme assays, the cells were lysed in 1% Triton X-100 on ice in the presence of a mixture of protease inhibitors (16 μg/ml benzamidine HCl, 10 μg/ml phenanthroline, 10 μg/ml aprotinin, 10 μg/ml leupeptin, 10 μg/ml pepstatin A, 1 mM PMSF, Pharmingen, San Diego, Calif.).
(§2) Glycan 1 was from Sigma (St. Louis, Mo.), and glycan 2 from Oxford Glycosystems (Abingdon, UK). The others were synthesized enzymatically. Briefly, glycan 11 was constructed from GlcNAcβ1-3Galβ1-OMe (Sigma) by β1,4-galactosylation (Brew, K., et al., Proc. Natl. Acad Sci. USA 59:491-497 (1968)) followed by β1,3-N-acetylglycosaminylation (Seppo, A., et al., Biochem. Cell Biol. 68:44-53 (1990)) and a second round of β1-4-galactosylation. […] Glycan 3 was obtained from glycan 11 by α2,3-sialylation as in (Maaheimo, H., et al., Eur. J. Biochem. 234:616-625 (1995)). Glycan 12 was constructed from the GNβ1-3 'LNβ1-3 'LN (Leppanen, A., et al., Biochemistry 30:9287-9296(1991)) by β1,4-galactosylation, MALDI-TOF MS: (M+Na)^+ m/z 1137.1 (calc. 1137.0). Glycan 4 was obtained by glycan 12 by α2,3-sialylation. Glycan 15 was synthesized as in (Renkonen, O., et al., Biochem. Cell. Biol. 68:1032-1036 (1990)), MALDI-TOF MS: (M+Na)^+ m/z 1136.9 (calc. 1137.0). Glycan 16 was obtained by a 2,3-salylation of 15. In the synthesis of glycan 8, GNβ1-3'LNβ1-3'LN was α1,3 [^14 C]fucosylated at both LN units with α1,3/4-FucTs ofhuman milk and then β1,4-galactosylated. MALDI-TOF MS of the resulting octasaccharide LN β1-3'Lexβ1-3'Lex gave (M+Na)^+ m/z 1429.3 (calc. 1429.3). The octasaccharide was finally α2,3-sialylated to give glycan 8. Degradation of glycan 8 by sialidase and a mixture of β-galactosidaseand β-N-acetylhexosaminidase gave the neutral hexasaccharide [^14 C]Fucα1-3LNβ1-3'[^14 C]Fucα1-3LN, which chromatographed like an authentic marker on paper. In the synthesis of glycan 5, glycan 10 was converted to the pentasaccharide LNβ1-3 '(GNβ1-6 ')LN as in (Niemela, R., et al., Carbohydr. Res. 279:331-338 (1995); Maaheimo, H., et al., Carbohydr. Res. 297:53-59 (1997)), MALDI-TOF MS: (M+Na)^+ m/z 974.8 (calc. 974.9). The product was α2,3-sialylated, α1,3-fucosylated selectively at the distal, sialylated LN-unit (Niemela, R., et al., Carbohydr. Res. 279:331-338 (1995), and treated with β-N-acetylhexosaminidase for removal of the protecting β1-6GN-unit to give glycan 5. Glycan 6, in turn, was obtained by α1,3-fucosylating glycan 9 at the LN unit by human milk α1,3/4-Fuc-Ts. The product was then β1,4-galactosylated and finally α2,3-sialylated. Glycan 7 was synthesized by α2,3-sialylation of the heptasaccharide LNβ1-3'Lexβ1-3'LN,prepared by β1,4-galactosylation of GNβ1-3 'Lexβ1-3 'LN, which had been isolated from a mixture of monofucosylated isomers by wheat germ agglutinin (WGA)-agarose chromatography. LNβ1-3'Lexβ1-3'N was characterized by ^1 H-NMR-spectroscopy, MALDI-TOF MS: (M+Na)^+m/z 1282.5 (calc. 1282.5). Glycan 9 was obtained by β1,3-N-acetylglucosaminylation of LN (Seppo, A., et al., Biochem. Cell Biol. 68:44-53 (1990)), MALDI-TOF MS: (M+Na)^+ m/z 609.7 (calc. 609.5). Glycan 10 was synthesized by β1,4-galactosylation of glycan 9. Glycans 13 and 14 were obtained by separating monofucosylated derivatives of glycan 10 by WGA chromatography. Glycan 13, MALDI-TOF MS: (M+Na)^+ m/z 917.9 (calc. 917.8). Glycan 14, MALDI-TOF MS: (M+Na)^+ m/z 917.8 (calc. 917.8). […]

human Fuc-TVII = experiment: Fucosyltransferase reaction with lysates of CHO-cells transfected with human Fuc-TVII; assay type: biochemical
Procedure: as §1
as §2, with “chromatography.” for “chromatography. Glycan 13, MALDI-TOF MS: (M+Na)^+ m/z 917.9 (calc. 917.8). Glycan 14, MALDI-TOF MS: (M+Na)^+ m/z 917.8 (calc. 917.8).”

[1] = system: rat lymphocyte L-selectin; experiment: Stamper-Woodruff assay: in vitro lymphocyte adhesion to high endothelial venules (HEV) of peripheral rat lymph nodes; assay type: cell-based
Procedure: The affinities of the glycans of the invention towards rat lymphocyte L-selectin were analyzed with the in vitro Stamper-Woodruff binding assay. […] The important control saccharides, carrying at the distal termini the fucose-free sLN-residues instead of the sLex-epitopes are consistently without any inhibitory effect.
Lymphocytes were isolated from mesenterical lymph nodes of WF or DA rats and used immediately in the assay after isolation and pretreatment. […] Lymphocytes were over 99% of purity as quantitated by cytocentrifuge preparations. […]
In the Stamper-Woodruff assay 3×10^6 lymphocytes in 100 μl of RPMI containing 0.5% FCS were put on a frozen section inside a 23 mm wax circle, and rotated for 30 min at +4° C. […] The number of bound lymphocytes was calculated per high endothelial venules and 50 to 100 vessels were identified from each sample. […]
Lymphocyte adhesion was studied in a well documented L-selectin-dependent Stamper-Woodruff assay where frozen sections of lymph nodes were prepared, lymphocytes were placed on top of them, adhesion was permitted on a rotator and the number of adherent cells were quantitated visually. […]

CC(=O)N[C@H]1C(O)O[C@H](CO)[C@@H](O[C@@H]2O[C@H](CO)[C@H](O)[C@H](O)[C@H]2O)[C@@H]1O (stereo partly shown) [glycan 1 (FIG. 8), N-acetyllactosamine, reference compound]
fucosylation by Fuc-TIV, acceptor- and site-specificity (in words) (human Fuc-TIV): rapidly fucosylates | Transfer rate (reference acceptor) (human Fuc-TIV; reference acceptor for Fuc-TIV): ~3.9 pmol/μg protein/h

CC(=O)N[C@H]1[C@H]([C@H](O)[C@H](O)CO)O[C@@](O[C@H]2[C@@H](O)[C@@H](CO)O[C@@H](O[C@H]3[C@H](O)[C@@H](NC(C)=O)C(O)O[C@@H]3CO)[C@@H]2O)(C(=O)O)C[C@@H]1O (stereo partly shown) [glycan 2 (FIG. 8), SAα2-3 'LN, reference compound]
fucosylation by Fuc-TIV, acceptor- and site-specificity (in words) (human Fuc-TIV): ineffective | Transfer rate (reference acceptor) (human Fuc-TVII; reference acceptor for Fuc-TVII): ~3.2 pmol/μg protein/h

LN1-3'LN1-3'LN [glycan 12 (FIG. 8)]
share of Fuc-TIV fucose transfer at the innermost / reducing end LN unit (residue 1) (human Fuc-TIV): 28% | share of Fuc-TIV fucose transfer at the middle LN unit (residue 2) (human Fuc-TIV): 47% | share of Fuc-TIV fucose transfer at the terminal (sialylated or non-reducing end) LN unit (human Fuc-TIV): 25%

LNβ1-3 'LNβ1-3'Galβ1-OMe [glycan 11 (FIG. 8)]
fucosylation by Fuc-TIV, acceptor- and site-specificity (in words) (human Fuc-TIV): transferred efficiently | share of Fuc-TIV fucose transfer at the middle LN unit (residue 2) (human Fuc-TIV): 67% | share of Fuc-TIV fucose transfer at the terminal (sialylated or non-reducing end) LN unit (human Fuc-TIV): 33%

LNβ1-3'Lex [glycan 14 (FIG. 8)]
fucosylation by Fuc-TIV, acceptor- and site-specificity (in words) (human Fuc-TIV): transferred rapidly

Lexβ1-3 'LN [glycan 13 (FIG. 8)]
fucosylation by Fuc-TIV, acceptor- and site-specificity (in words) (human Fuc-TIV): transferred rapidly

SAα2,3'LNβ1,3'LNβ1,3' (SAα2,3'LNβ1,3'LNβ1,6')LN [glycan 5]
effect on lymphocyte adhesion to HEV (in words) ([1]; 50 nM): no effect in lymphocyte binding to HEV | effect on lymphocyte adhesion/binding to HEV (in words) ([1]; peripheral rat lymph node HEV): did not show inhibitory effects

SAα2-3'LNβ1-3'LNβ1-3'LN [glycan 4 (FIG. 8)]
fucosylation by Fuc-TIV, acceptor- and site-specificity (in words) (human Fuc-TIV): efficiently fucosylates; also recorded: transfers rapidly to sialoglycan 4, at both "inner" LN units; also recorded: efficient conversion of glycan 4 to glycan 8 in two steps catalyzed by Fuc-TIV, but not by Fuc-TVII | rate of Fuc-TIV transfer to the sialylated LN unit (residue 3), times slower than to both inner LN units (human Fuc-TIV; residue 3 vs residues 1 and 2): 30-40 times slower | fucosylation by Fuc-TVII, acceptor- and site-specificity (in words) (human Fuc-TVII): transfers preferentially to the sialylated, distal LN residue | rate of Fuc-TVII transfer to the reducing end LN unit (residue 1), times slower than to the sialylated LN residue (human Fuc-TVII; residue 1 vs residue 3): 84 times slower | rate of Fuc-TVII transfer to the middle LN unit (residue 2), times slower than to the sialylated LN residue (human Fuc-TVII; residue 2 vs residue 3): 17 times slower

SAα2-3'LNβ1-3'Lexβ1-3'LN [glycan 7 (FIG. 8)]
fucosylation by Fuc-TIV, acceptor- and site-specificity (in words) (human Fuc-TIV): effectively utilizes | share of Fuc-TIV fucose transfer at the innermost / reducing end LN unit (residue 1) (human Fuc-TIV): 86% | share of Fuc-TIV fucose transfer at the terminal (sialylated or non-reducing end) LN unit (human Fuc-TIV): Less than 5%

SAα2-3'LNβ1-3Lex β1-3'[^14 C]Lex [glycan 8 (FIG. 8)]
fucosylation by Fuc-TIV, acceptor- and site-specificity (in words) (human Fuc-TIV): ineffective | rate of Fuc-TIV reaction as % of the rate catalyzed by Fuc-TVII (human Fuc-TIV; transfer to distal sialylated LN unit giving SAα2-3'Lexβ1-3'Lexβ1-3'Lex): 6-7% | fucosylation by Fuc-TVII, acceptor- and site-specificity (in words) (human Fuc-TVII): nearly as rapidly as glycan 2
